Measured values published in patent publication US4913908A, “Preparation of submicroscopic particles, particles thus obtained and pharmaceutical compositions containing them” (N. V. Sopar S.A., priority 1981, dated 1990).

Columns and labels:
[1] = Toxicity: survival/mortality of mice after intravenous administration or injections; type: in vivo; conditions: mouse, in vivo; intravenous, three successive doses of 10 mg/kg/day; read-out: mice that do not survive for 15 days
Experimental: (§1) Several toxicity measurements are carried out with suspensions of particles obtained by this process.

mice = assay: as above; type: in vivo; conditions: three injections of 12.5 mg/kg/day; result in words
Experimental: as §1

COc1cccc2c1C(=O)c1c(O)c3c(c(O)c1C2=O)C[C@@](O)(C(=O)CO)C[C@@H]3O[C@H]1C[C@H](N)[C@H](O)[C@H](C)O1 [doxorubicin]
mortality at 360 h [1]: 27.5% | mice that survive (mice): none of the mice survives
